Assay results as given in US10538567B2, “Compounds as peptidic trigonal GLP1/glucagon/GIP receptor agonists” (priority 2016, dated 2020).
Numbered stars: 1 amine (or outer) side, 2 acyl side, 3 side chain; on linkers, the order of the positions; unused ones are H or OH. Square brackets hold non-standard residues; d marks the D form. Side chains are listed from the residue outwards. Peptide text beside a SMILES is read from it. * marks the point of attachment. γGlu = O=C(O)[C@H](CCC(=O)[*:2])N[*:1]; Palmitoyl = CCCCCCCCCCCCCCCC(=O)*; Aib = CC(C)(N)C(=O)O

Tests used:
[1] = Chemical stability assessment, UPLC-UV purity loss in buffer system A; format: physicochemical; details: 1 mg/ml, 25 mM acetate buffer pH 4.5 with m-cresol
Protocol: Prior to the chemical stability measurement of a peptide batch, its purity was determined through UPLC/MS. For stability testing the target concentration was 1 mg pure compound/ml. Therefore solutions from solid samples were prepared in a buffer system with a concentration of 1 mg/mL compound based on the previously determined % purity:
Chemical stability buffer system A) 25 mM acetate buffer pH 4.5, 3 mg/mL L-Methionine, 2.7 mg/mL m-cresol, 18 mg/mL Glycerol 85% Chemical stability buffer system B) 25 mM phosphate buffer pH 6.0, 3 mg/mL L-Methionine, 2.7 mg/mL m-cresol, 18 mg/mL Glycerol 85%
Peptide solutions were filtered through […] pore size and filled into aliquots under aseptic conditions. At starting point, UPLC-UV was performed by injection of 2 μl of the undiluted sample.
For chemical stability testing, aliquots were stored for 28 days at 5 and 40° C. After this time course the samples were centrifuged for 15 min at 2500 RCF. Then 2 μl of the undiluted supernatant were analysed with UPLC-UV.
The chemical stability was rated through the relative loss of purity calculated by the equation: [(purity at starting point)−(purity after 28 days at X° C.)]/(purity at starting point)]*100%
The purity is calculated as
[(peak area peptide)/(total peak area)]*100%
Peptide samples were prepared in Chemical stability buffer system A and the stability was assessed as described in Methods.

[2] = Thioflavin T (ThT) assay for physical stability (fibrillation); format: physicochemical; details: 3 mg/ml, 100 mM acetate pH 4.5 with m-cresol, 37° C. shaking
Summary of the method: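 Peptides at 3 mg/ml final with 100 μM ThT final in 100 mM acetate pH 4.5 containing 2.7 mg/mL m-cresol, eight replicates. Stressed at 37° C by repeated cycles of 10 s shaking at 960 rpm and 50 s rest. Fluorescence read every 20 minutes; lag time in hours taken from the sigmoidal kinetic curve.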

[3] = test system: female diabetic db/db mice; assay: Acute effects after s.c. treatment on blood glucose in non-fasting female diabetic db/db mice; format: in vivo; details: single 30 μg/kg s.c.
Protocol: Female healthy, lean BKS.Cg-(lean)/OlaHsd and diabetes-prone, obese BKS.Cg-+Lepr^db/+Lepr^db/OlaHsd mice were ordered group housed from Envigo RMS Inc., shipped group housed and remained group housed in shoebox caging with wood chip bedding until day 15 of the predose phase. At the study start mice were approximately 12 weeks old.
Mice were housed under vivarium conditions including a 12 h light/dark cycle (light phase 04:00 AM-4:00 PM), room temperatures between 23-26° C. and a relative humidity between 30-70%. All animals had free access to water and Purina Fomulab Diet 5008.
On predose day 9 blood glucose and body mass (approximately between 08:00-10:00 AM) as well as HbA1c measurements were performed. On day 15 of the predose phase animals were assigned to treatment groups (n=8) and to new cages to match mean HbA1c and body masses between all db/db groups. An age-matched lean group was included in the study as a healthy, lean reference.
Prior to day 1 of the dosing phase, the test article was diluted with Phosphate Buffered Saline (PBS, Gibco, without CaCl2 and MgCl2) to a concentration of 1 mg/mL and aliquots of this stock solution were stored at approximately ≤−60° C. On day 1 of the dosing phase the stock aliquot was thawed and the injected test article solution was prepared fresh by diluting it with PBS to achieve the desired concentration.
On Day 1 of the dosing phase db/db mice were either treated once with a s.c. injection of PBS-vehicle or 30 μg/kg test article. The lean reference group was treated once with a s.c. injection of PBS-vehicle. The dosing was initiated and completed between 08:00 and 10:00 AM. The applied volume was 5 ml/kg and the dose was adjusted to the most recent body mass recording of each individual.
Animals had unlimited access to water and feed during the experiment. On day 1 of the dosing phase approximately 5 μL of blood were collected via tail clips at minute −30 and 0 prior to any other inlife activities. At minute 0 mice received a s.c. dose of either PBS-vehicle or 30 μg/kg test article. Further blood samples were harvested at hour 0.25, 0.5, 1, 1.5, 2, 3, 4, 6, 8, and 24 post-dose. Glucose measurements were performed in whole blood using AlphaTRAK glucometers. If the glucose concentrations of two measurements differed by more than 20 mg/dL a third value was recorded. The Area Under the Curve (AUC) for blood glucose was calculated via the trapezoid method and for the duration of the 24 post-dose hours.
In the Figures data are depicted as means±SEM. […] A One Way Analysis of Variance and multiple comparisons (Dunnett's Method) were performed comparing the group of diabetic, obese db/db vehicle mice (n=8) with each diabetic, obese db/db test article treated mice (n=8). […] Non-diabetic, lean-vehicle group data are depicted in the Figures serving as a reference dataset for the non-obese, non-diabetic state.

Row | Chemical stability [relative purity loss 28 days 40° C.] (%) at pH 4.5 [1] | Lag time before increase [2] | SMILES | mean blood glucose concentration 24 hours post-dose relative to baseline [3] | time to normalise hyperglycemia to the non-fasting blood glucose concentrations of lean reference mice [3]
1 | 7.1% | >45 h | CCCCCCCCCCCCCCCC(=O)N[C@@H](CCC(=O)N[C@@H](CCC(=O)NCCCC[C@H](NC(=O)[C@H](CC(C)C)NC(=O)[C@H](CCCCN)NC(=O)[C@H](CO)NC(=O)[C@H](CC(C)C)NC(=O)[C@H](CC(=O)O)NC(=O)[C@H](CO)NC(=O)[C@@H](NC(=O)[C@H](Cc1ccccc1)NC(=O)[C@@H](NC(=O)CNC(=O)[C@H](Cc1c[nH]cn1)NC(=O)C(C)(C)NC(=O)[C@@H](N)Cc1c[nH]cn1)[C@@H](C)O)[C@@H](C)O)C(=O)N[C@@H](CCC(=O)O)C(=O)N[C@@H](CCC(=O)O)C(=O)N[C@@H](CCC(N)=O)C(=O)N[C@@H](CCCNC(=N)N)C(=O)N[C@@H](CCC(N)=O)C(=O)N[C@@H](CCCCN)C(=O)N[C@@H](CCC(=O)O)C(=O)N[C@@H](Cc1ccccc1)C(=O)N[C@H](C(=O)N[C@@H](CCC(=O)O)C(=O)N[C@@H](Cc1c[nH]c2ccccc12)C(=O)N[C@@H](CC(C)C)C(=O)N[C@@H](CCCCN)C(=O)N[C@@H](C)C(=O)NCC(=O)NCC(=O)N[C@@H](Cc1c[nH]cn1)C(=O)N1CCC[C@H]1C(=O)N[C@@H](CO)C(=O)NC(C)(C)C(=O)N[C@@H](CCCCN)C(=O)N1CCC[C@H]1C(=O)N1CCC[C@H]1C(=O)N1CCC[C@H]1C(=O)N[C@@H](CCCCN)C(N)=O)[C@@H](C)CC)C(=O)O)C(=O)O [SEQ ID NO: 6, H-Aib-H-G-T-F-T-S-D-L-S-K-L-K[gGlu-gGlu-Palm]-E-E-Q-R-Q-K-E-F-I-E-W-L-K-A-G-G-H-P-S-Aib-K-P-P-P-K-NH2] | at or close to baseline | –
2 | 8.1% | >45 h | CCCCCCCCCCCCCCCC(=O)N[C@@H](CCC(=O)N[C@@H](CCC(=O)NCCCC[C@H](NC(=O)[C@H](CC(C)C)NC(=O)[C@H](CCCCN)NC(=O)[C@H](CO)NC(=O)[C@H](CC(C)C)NC(=O)[C@H](CC(=O)O)NC(=O)[C@H](CO)NC(=O)[C@@H](NC(=O)[C@H](Cc1ccccc1)NC(=O)[C@@H](NC(=O)CNC(=O)[C@H](Cc1c[nH]cn1)NC(=O)C(C)(C)NC(=O)[C@@H](N)Cc1c[nH]cn1)[C@@H](C)O)[C@@H](C)O)C(=O)N[C@@H](CCC(=O)O)C(=O)N[C@@H](CCC(=O)O)C(=O)N[C@@H](CCC(N)=O)C(=O)N[C@@H](CCCNC(=N)N)C(=O)N[C@@H](CCC(N)=O)C(=O)N[C@@H](CCCCN)C(=O)N[C@@H](CCC(=O)O)C(=O)N[C@@H](Cc1ccccc1)C(=O)N[C@H](C(=O)N[C@@H](CCC(=O)O)C(=O)N[C@@H](Cc1c[nH]c2ccccc12)C(=O)N[C@@H](CC(C)C)C(=O)N[C@@H](CCCCN)C(=O)N[C@@H](C)C(=O)N[C@H](C)C(=O)NCC(=O)N[C@@H](Cc1c[nH]cn1)C(=O)N1CCC[C@H]1C(=O)N[C@@H](CO)C(=O)NC(C)(C)C(=O)N[C@@H](CCCCN)C(=O)N1CCC[C@H]1C(=O)N1CCC[C@H]1C(=O)N1CCC[C@H]1C(=O)N[C@@H](CCCCN)C(N)=O)[C@@H](C)CC)C(=O)O)C(=O)O [SEQ ID NO: 7, H-Aib-H-G-T-F-T-S-D-L-S-K-L-K[gGlu-gGlu-Palm]-E-E-Q-R-Q-K-E-F-I-E-W-L-K-A-dAla-G-H-P-S-Aib-K-P-P-P-K-NH2] (H-H[Aib]HGTFTSDLSKLK([γGlu-γGlu-Palmitoyl])EEQRQKEFIEWLKA[dA]GHPS[Aib]KPPPK-NH2) | at baseline | ≤ 6 h
3 | 10.3% | >45 h | CCCCCCCCCCCCCCCC(=O)N[C@@H](CCC(=O)N[C@@H](CCC(=O)NCCCC[C@H](NC(=O)[C@H](CC(C)C)NC(=O)[C@H](CCCCN)NC(=O)[C@H](CO)NC(=O)[C@H](CC(C)C)NC(=O)[C@H](CC(=O)O)NC(=O)[C@H](CO)NC(=O)[C@@H](NC(=O)[C@H](Cc1ccccc1)NC(=O)[C@@H](NC(=O)CNC(=O)[C@H](Cc1c[nH]cn1)NC(=O)C(C)(C)NC(=O)[C@@H](N)Cc1c[nH]cn1)[C@@H](C)O)[C@@H](C)O)C(=O)N[C@@H](CCC(=O)O)C(=O)N[C@@H](CCC(=O)O)C(=O)N[C@@H](CCC(N)=O)C(=O)N[C@@H](CCCNC(=N)N)C(=O)N[C@@H](CCC(N)=O)C(=O)N[C@@H](CCCCN)C(=O)N[C@@H](CCC(=O)O)C(=O)N[C@@H](Cc1ccccc1)C(=O)N[C@H](C(=O)N[C@@H](CCC(=O)O)C(=O)N[C@@H](Cc1c[nH]c2ccccc12)C(=O)N[C@@H](CC(C)C)C(=O)N[C@@H](CCCCN)C(=O)N[C@@H](C)C(=O)NCC(=O)NCC(=O)N1CCC[C@H]1C(=O)N1CCC[C@H]1C(=O)N[C@@H](CO)C(=O)NC(C)(C)C(=O)N[C@@H](CCCCN)C(=O)N1CCC[C@H]1C(=O)N1CCC[C@H]1C(=O)N1CCC[C@H]1C(=O)N[C@@H](CCCCN)C(N)=O)[C@@H](C)CC)C(=O)O)C(=O)O [SEQ ID NO: 8, H-Aib-H-G-T-F-T-S-D-L-S-K-L-K[gGlu-gGlu-Palm]-E-E-Q-R-Q-K-E-F-I-E-W-L-K-A-G-G-P-P-S-Aib-K-P-P-P-K-NH2] | at or close to baseline | –
4 | 6.9% | >45 h | CCCCCCCCCCCCCCCC(=O)N[C@@H](CCC(=O)N[C@@H](CCC(=O)NCCCC[C@H](NC(=O)[C@H](CC(C)C)NC(=O)[C@H](CCCCN)NC(=O)[C@H](CO)NC(=O)[C@H](CC(C)C)NC(=O)[C@H](CC(=O)O)NC(=O)[C@H](CO)NC(=O)[C@@H](NC(=O)[C@H](Cc1ccccc1)NC(=O)[C@@H](NC(=O)CNC(=O)[C@H](Cc1c[nH]cn1)NC(=O)C(C)(C)NC(=O)[C@@H](N)Cc1c[nH]cn1)[C@@H](C)O)[C@@H](C)O)C(=O)N[C@@H](CCC(=O)O)C(=O)N[C@@H](CCC(=O)O)C(=O)N[C@@H](CCC(N)=O)C(=O)N[C@@H](CCCNC(=N)N)C(=O)N[C@@H](CCC(N)=O)C(=O)N[C@@H](CCCCN)C(=O)N[C@@H](CCC(=O)O)C(=O)N[C@@H](Cc1ccccc1)C(=O)N[C@H](C(=O)N[C@@H](CCC(=O)O)C(=O)N[C@@H](Cc1c[nH]c2ccccc12)C(=O)N[C@@H](CC(C)C)C(=O)N[C@@H](CCCCN)C(=O)N[C@@H](C)C(=O)N[C@H](C)C(=O)NCC(=O)N1CCC[C@H]1C(=O)N1CCC[C@H]1C(=O)N[C@@H](CO)C(=O)NC(C)(C)C(=O)N[C@@H](CCCCN)C(=O)N1CCC[C@H]1C(=O)N1CCC[C@H]1C(=O)N1CCC[C@H]1C(=O)N[C@@H](CCCCN)C(N)=O)[C@@H](C)CC)C(=O)O)C(=O)O [SEQ ID NO: 9, H-Aib-H-G-T-F-T-S-D-L-S-K-L-K[gGlu-gGlu-Palm]-E-E-Q-R-Q-K-E-F-I-E-W-L-K-A-dAla-G-P-P-S-Aib-K-P-P-P-K-NH2] (H-H[Aib]HGTFTSDLSKLK([γGlu-γGlu-Palmitoyl])EEQRQKEFIEWLKA[dA]GPPS[Aib]KPPPK-NH2) | at or close to baseline | –
